{
  "source": "patent US10907168B2",
  "about": "“Jasmonic acid pathway activator” (MEDICAGO INC., priority 2015, dated 2021)",
  "system": "C5-1 antibody",
  "assay": "C5-1 antibody quantification by ELISA in agroinfiltrated leaves",
  "format": "in vivo, Nicotiana benthamiana",
  "method": "Forty-two day-old N. benthamiana plants grown in greenhouse were used for the experiments. Each plant was sprayed evenly with 50 ml of 0.5 mM, 1 mM or 2 mM MeJA in water containing 0.1% (v/v) Triton X-100 (Sigma-Aldrich, Mississauga ON, Canada), or with 50 ml of 1 mM arachidonic acid (Girard et al., 2007) in the same solvent, and transferred for seven days in a Conviron growth chamber (Conviron, Winnipeg MB, Canada). Plants sprayed with 50 ml of 0.1% (v/v) Triton X-100 in water were used in parallel as negative controls to avoid confounding effects due to experimental conditions. Two or three 1-cm^2 leaf discs were harvested from the third main stem leaf (see Robert et al., 2013) after seven days, as source material for protein and RNA extraction. The leaf samples were frozen immediately in liquid nitrogen and stored at −80° C. until protein or RNA extraction. Three to five biological (plant) replicates were used for each treatment, to allow for statistical treatment of the data. Two gene vectors were used for the agroinfiltration assays: an engineered pcambia2300 vector encoding the light and heavy chains of C5-1 fused to an N-terminal signal peptide sequence for cellular secretion (see Goulet et al., 2012 for details on gene construct); and the original (“empty”) pcambia2300 binary vector (CAMBIA, Canberra, Australia) as a control for agroinfection. The two binary vectors were electroporated into A. tumefaciens strain LBA4404 and the cultures were maintained in Luria-Bertani (LB) medium supplemented with 50 μg/ml kanamycin and 50 μg/ml rifampicin. For infiltration, bacteria were grown to stable phase at 28° C. to an OD600 of 1.0 and collected by centrifugation at 2,000 g. The bacterial pellets were resuspended in 10 mM 2-[N-morpholino] ethanesulfonic acid] (MES) buffer, pH 5.8, containing 100 μM acetosyringone and 10 mM MgCl2. Leaf infiltration was performed using a needle-less syringe as described earlier (D'Aoust et al., 2009), after mixing the C5-1 antibody (or empty vector) agrobacterial suspension with an equal volume of bacterial suspension carrying a binary vector for the protein silencing suppressor p19 (Voinnet et al., 2003). Infiltrated tissue for molecular characterization was collected six days post-infection (i.e. seven days post-MeJA or arachidonate treatment), unless otherwise indicated. Three to five biological (plant) replicates were used for each treatment to allow for statistical analyses. ELISA plates for C5-1 antibody quantification (Becton Dickinson, Mississauga ON, Canada) were coated with 3.75 μg/ml goat anti-mouse heavy chain-specific IgG1 (Sigma-Aldrich) in 50 mM carbonate buffer (pH 9.0) at 4° C. for 16-18 h. The plates were washed three times in 10 mM phosphate-buffered saline containing 0.1% (v/v) Tween 20 (PBS-T), blocked through a 1-h incubation at 37° C. in 1% (w/v) casein in phosphate-buffered saline (PBS) (Pierce, Rockford Ill., USA), and washed three times in PBS-T. A standard curve was generated for each plate with 0, 4, 8, 16, 24, 32, 40 and 60 ng/ml of purified mouse IgG1 (Sigma-Aldrich). All dilutions (controls and samples) were performed in a control extract obtained from leaf tissue infiltrated with a mock inoculum so that any matrix effect was eliminated. The plates were incubated with protein samples for 1 h at 37° C., washed three times in PBS-T and then incubated with peroxidase-conjugated goat anti-mouse IgG (H+L) antibodies (0.02 μg/ml in blocking solution) (Jackson ImmunoResearch) for 1 h at 37° C. After additional washes with PBS-T, the plates were incubated with the 3,3′,5,5′-tetramethylbenzidine Sure Blue peroxidase substrate (KPL, Gaithersburg Md., USA). The reaction was stopped by the addition of 1 N HCl and the absorbance was read at 450 nm. Three independent (biological) replicates were used for each assay.",
  "key": {"[1]": {"settings": "ELISA, 1 mM, 24 h before infiltration"}},
  "data": [
    {"smiles": "CC/C=C\\C[C@H]1C(=O)CC[C@@H]1CC(=O)OC", "note": "[MeJA, methyl jasmonate]", "values": [
      {"measurement": "C5-1 yield change", "setting": "1 mM, 24 h before infiltration, antibody expressed under alfalfa plastocyanin promoter", "result": "more than twofold decrease"},
      {"measurement": "C5-1 net yield as share of TSP", "setting": "[1]", "result": "~7", "unit": "% TSP"},
      {"measurement": "C5-1 net yield on a protein-relative basis", "setting": "[1]", "result": "70 ng antibody/μg soluble proteins"},
      {"measurement": "C5-1 protein-relative yield compared with control leaves", "setting": "ELISA, 1 mM, 24 h before infiltration, P<0.05", "result": "about twice"},
      {"measurement": "C5-1 yield on a weight basis", "setting": "ELISA, 1 mM, 24 h before infiltration, maximum yield", "result": "~425", "unit": "μg/g leaf tissue"},
      {"measurement": "C5-1 yield on a weight basis", "setting": "ELISA, 2 mM, 24 h before infiltration", "result": "~325", "unit": "μg/g leaf tissue"},
      {"measurement": "C5-1 yield change", "setting": "ELISA, sprayed 24 h post-infiltration (0.5 or 1 mM)", "result": "No yield increase"}
    ]}
  ]
}
